Experimental data from publication PMC3596085 (International journal for parasitology, drugs and drug …, 2012).
Read-outs that look alike come from different tables or passages of the source.

Assays:
human CYP51 [1] = assay: Reconstitution of CYP51 activity in vitro; format: biochemical; details: 60′ reaction, lanosterol
[2] = tested on: NIH/3T3 mouse embryonic fibroblasts; assay: Growth inhibition assay using 5-bromodeoxyuridine incorporation; format: cell-based; details: 50 μM, 24 h treatment, BrdU incorporation, vs DMSO
human CYP3A4 [3] = target: T1, human CYP3A4 (Homo sapiens, UniProt P08684)
T1 sequence (P08684 whole entry): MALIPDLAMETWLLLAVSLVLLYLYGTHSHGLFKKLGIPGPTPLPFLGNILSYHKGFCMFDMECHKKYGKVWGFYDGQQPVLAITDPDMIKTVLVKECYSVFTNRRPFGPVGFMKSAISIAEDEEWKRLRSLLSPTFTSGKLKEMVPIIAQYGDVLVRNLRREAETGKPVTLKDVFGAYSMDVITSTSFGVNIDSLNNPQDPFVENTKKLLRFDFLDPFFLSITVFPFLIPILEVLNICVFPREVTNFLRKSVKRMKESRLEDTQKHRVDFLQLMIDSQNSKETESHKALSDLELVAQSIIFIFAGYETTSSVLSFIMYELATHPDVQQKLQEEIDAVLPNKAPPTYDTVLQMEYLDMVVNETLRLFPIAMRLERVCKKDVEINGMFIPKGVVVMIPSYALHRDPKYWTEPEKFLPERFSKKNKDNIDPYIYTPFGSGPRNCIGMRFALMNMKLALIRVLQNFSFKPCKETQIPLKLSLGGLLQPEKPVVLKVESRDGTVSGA

[4] = Growth inhibition assay using 5-bromodeoxyuridine incorporation; format: cell-based, mouse; details: mouse
Trypanosoma cruzi = details: ref Villalta et al., submitted for publication; cited from earlier work
T. brucei = details: ref Lepesheva et al., 2010b; cited from earlier work
T. cruzi CYP51 [5] = target: T. cruzi CYP51 (Trypanosoma cruzi, UniProt Q7Z1V1); assay: CYP51 spectral titration; format: binding
Chain of T. cruzi CYP51 (Trypanosoma cruzi, UniProt Q7Z1V1) (Q7Z1V1 whole entry): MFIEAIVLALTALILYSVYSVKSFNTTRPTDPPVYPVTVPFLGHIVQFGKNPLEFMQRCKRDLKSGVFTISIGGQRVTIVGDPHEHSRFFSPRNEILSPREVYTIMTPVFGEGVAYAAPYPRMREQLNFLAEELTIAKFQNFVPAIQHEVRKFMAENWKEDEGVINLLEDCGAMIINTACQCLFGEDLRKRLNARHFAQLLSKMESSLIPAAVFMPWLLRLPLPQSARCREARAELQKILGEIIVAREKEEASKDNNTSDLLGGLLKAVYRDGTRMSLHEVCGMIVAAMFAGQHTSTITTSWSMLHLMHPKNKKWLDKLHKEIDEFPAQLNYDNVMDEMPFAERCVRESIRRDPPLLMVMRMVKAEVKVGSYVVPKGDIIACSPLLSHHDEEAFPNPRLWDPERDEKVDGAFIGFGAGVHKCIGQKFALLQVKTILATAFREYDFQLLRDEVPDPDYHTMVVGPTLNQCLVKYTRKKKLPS

T. cruzi CYP51 [6] = details: standard CYP51 reaction conditions; ref Lepesheva et al., 2007; cited from earlier work
human CYP51 [7] = details: standard CYP51 reaction conditions; ref Lepesheva et al., 2008; cited from earlier work
[8] = VNI oral pharmacokinetics in mouse plasma; format: in vivo; details: 25 mg/kg
[9] = tested on: T. cruzi CYP51 gene expression; details: ref Lepesheva et al., 2010a; cited from earlier work
T. brucei CYP51 = details: standard CYP51 reaction conditions; ref Lepesheva et al., 2007; cited from earlier work
[10] = Acute mice toxicity study; format: in vivo, mouse; details: female, Swiss Webster, mouse, in vivo, po
[11] = tested on: Female Swiss Webster mice; assay: Acute mice toxicity study; format: in vivo, mouse; details: oral, up to 400 mg/kg, up to 48 h
human CYP3A4 [12] = target: T1, human CYP3A4; assay: Inhibitory effect on CYP3A4

For `O=C(N[C@H](Cn1ccnc1)c1ccc(Cl)cc1Cl)c1ccc(-c2nnc(-c3ccccc3)o2)cc1` (single isomer, unassigned) [VNI S-enantiomer], the “CYP51 inhibition, Human (inhibitor/enzyme molar ratio for 50% inhibition)” value (human CYP51 [1]) was >200, the “Mammalian cell growth: % of viable 3T3 cells at 50 μM” value (shortened to “Mammalian cell growth: %”) [2] was 77.1 ± 2.6% and the IC50 (human CYP3A4 [3]) was 290 ± 19 nM.

Compound `CC(=O)N1CCN(c2ccc(OCC3COC(Cn4ccnc4)(c4ccc(Cl)cc4Cl)O3)cc2)CC1` (stereo not drawn) [Ketoconazole, reference compound] has a viability at 24 h, 50 µM [4] of 0%.

For `O=C(N[C@@H](Cn1ccnc1)c1ccc(Cl)cc1Cl)c1ccc(-c2nnc(-c3ccccc3)o2)cc1` [VNI, (R)-N-(1-(2,4-dichlorophenyl)-2-(1H-imidazol-1-yl)ethyl)-4-(5-phenyl-1,3,4-oxadiazol-2-yl)benzamide], the “CYP51 inhibition, Human (inhibitor/enzyme molar ratio for 50% inhibition)” value (human CYP51 [1]) is listed as >200, the “effect in the murine model of Chagas disease” value (Trypanosoma cruzi) is listed as “Curative effect” and the “parasitemia in the mouse model of T. brucei infection” value (T. brucei) is listed as “slows down parasitemia”. The Kd (T. cruzi CYP51 [5]) was 90 ± 10 nM, the “inhibition of T. cruzi CYP51 activity at 1:1 molar ratio to the enzyme” value (T. cruzi CYP51 [6]) was “completely inhibit” and the “inhibition of the human CYP51 ortholog” value (human CYP51 [7]) was “do not inhibit”. For the same compound, the concentration at 2 h [8] was 40 µM, the concentration at 8 h [8] was > 20 µM and the “induction of T. cruzi CYP51 gene expression” value [9] was “do not induce”. For the same compound, the “Mammalian cell growth: %” value ([2]; 50 µM) was 76.8 ± 2.1%, the “inhibition of T. brucei CYP51 activity at 1:1 molar ratio to the enzyme” value (T. brucei CYP51) was “completely inhibit” and the NOAEL at 48 h [10] was 400 mg/kg. The mortality [11] was “neither leads to mortality” and the IC50 (human CYP3A4 [12]) was 405 ± 23 nM.

For VNI/VNF combination, the “CYP51 inhibition, Human (inhibitor/enzyme molar ratio for 50% inhibition)” value (human CYP51 [1]) was 15 ± 0.9, the “Mammalian cell growth: %” value [2] was 77.2 ± 6.3% and the IC50 (human CYP3A4 [3]) was 3580 ± 271 nM.
